One data set concerns K562 ALDH (+) cells. Nature of the data set: Cancer stem-cell selective staining, ALDH (+) cells. It is filed as cell-based, Human. The note with it: cells of Experimental Examples 39, 42 and 45 (1 μg/ml, cultured for 24 hours), fluorescent microscope. The method, then:
(§1) The cells cultured for 24 hours in each of Experimental Examples 39, 42 and 45 were subjected to nuclear staining with Hoechest33342 (manufactured by Dojindo Laboratories) and a fluorescent image observed under AXIOVERT200M inverted fluorescent microscope (manufactured by Carl Zeiss) was photographed.

Data set [1] in a line: Measurement of fluorescent property of compound. It is filed as physicochemical. Particulars: 5 μM DMSO solution. The method, then:
The excitation wavelength and fluorescence wavelength of the compound were measured by a FL4500 spectrofluorometric measuring machine manufactured by Hitachi High-Technologies Corporation.

For data set [2], the system named is Human chronic myelocytic leukemia cells, K562, ALDH (+) fraction (cancer stem cells). As to the kind of experiment: Cancer stem-cell selective inhibitory action against chronic myelocytic leukemia cells, ALDH (+) fraction. It is filed as cell-based. Particulars: 24 hours.
In data set [3] the test system is Prostatic cancer cells, PC-3. Nature of the data set: Cancer cell inhibitory (growth suppressive) action against prostatic cancer cells, CellTiter-Glo viable cell count. It counts as cell-based. The note with it: PC-3, 10 μg/mL, 24 hours. As to the method: Prostatic cancer cells, PC-3, were pre-cultured in RPMI1640 medium containing 10% FBS at 37° C. in a 5% CO2 ambient. Thereafter, 4,000 cells were seeded per well of a 96-well plate and further cultured for 24 hours. Subsequently, Compound (1) was added to the medium so as to obtain a final concentration of 10 μg/mL and cultured at 37° C. for 24 hours in a 5% CO2 ambient. The cultured cells were analyzed for viable cell count according to Cell Titer-Glo Luminescent Cell Viability Assay (manufactured by Promega KK.).
Viable cell count was analyzed in the same manner as in Experimental Example 24 except that Compound (1) of Experimental Example 24 was changed to each compound shown in Table 2.
Viable cell count was analyzed in the same manner as in Experimental Example 24 except that Compound (1) of Experimental Example 24 was changed to each of Comparative compounds 1 to 4, to obtain growth rates.
Note that the growth rate used in Examples refers to the rate (expressed by percentage) of viable cell count after culture relative to the number of cells at the initiation of cell culture. Evaluation criteria are the same as in the above experiments.

Data set [4] has as its system Human pancreas cancer cells, KLM-1. As to the kind of experiment: Cancer cell inhibitory (growth suppressive) action against pancreatic cancer cells, CellTiter-Glo viable cell count. Particulars: KLM-1, 10 μg/mL, 24 hours. (In general: ATP-based viability assays read luminescence as a measure of living cells.)
The subject of the next data set is K562 ALDH (−) cells. Nature of the data set: Cancer stem-cell selective staining, ALDH (−) cells. The note with it: cells of Experimental Examples 39, 42 and 45 (1 μg/ml, cultured for 24 hours), fluorescent microscope. It counts as cell-based, Human. As to the method:
as §1

Data set [5] has as its system KLM1-KOr cells, ALDH (+) fraction, transplanted to zebra young fish. Nature of the data set: Cancer metastasis suppressive effect in cancer cell metastatic foci (region within 300 to 450 μm from a transplanted tumor). It is filed as in vivo. Particulars: 72 hours later, region within 300 to 450 μm from transplanted tumor; for Inhibition rate 100×(1−F1/F0), metastatic foci: administered to yolk sac 24 hours after transplantation (Compound (26) 745 μmol/KgBW). The method, then: From cell strain […], in which KLM1 cells have fluorescent protein Kusabira-Orange constantly expressed, a fraction (ALDH (+)) containing 80% or more of cancer stem cells was extracted with ALDEFLUOR reagent (manufactured by VERITAS Corporation) and FACSAria flow cytometry (manufactured by Nippon Becton, Dickinson and Company). The extracted KLM1-KOr cells were transplanted to zebra young fish (MieKomachi lineage, 2 days after fertilization) and the fish were raised in a 32° C. environment. Furthermore, 24 hours after transplantation, Compound (26) (745 μmol/KgBW) was administered to yolk sac.
72 hours later, cells transplanted to the zebra young fish were observed under MZ16F fluorescent stereoscopic microscope (manufactured by Leica Microsystems) and a fluorescent image of the region within 300 to 450 μm from a transplanted tumor was photographed and then fluorescent intensity was quantified.
As a reference, the fluorescent intensity of cells, which were cultured in the same operation method as above in a medium containing a 0.1% DMSO solution in place of Compound (26), was used.
Fluorescent images were photographed in the same manner as in Experimental Example 26 except that Imatinib and Dasatinib were respectively used in place of the compound (26) in Experimental Example 75.
The inhibition rate herein was obtained according to the expression: 100×(1−F1/F0), where the fluorescent intensity of cells when a test substance was added is represented by F1, and the fluorescent intensity of cells when a reference substance (DMSO) was added is represented by F0.

Data set [6] relates to Human chronic myelocytic leukemia cells, K562, ALDH (−) fraction (general cancer cells). As to the kind of experiment: Cancer stem-cell selective inhibitory action against chronic myelocytic leukemia cells, ALDH (−) fraction. It counts as cell-based. Particulars: K562. The method, then: Human chronic myelocytic leukemia cells, K562, were pre-cultured in RPMI1640 medium containing 10% FBS at 37° C. in a 5% CO2 ambient. Then, a fraction containing 80% or more of cancer stem cells was extracted by use of a cancer stem cell marker, ALDEFLUOR reagent (manufactured by VERITAS Corporation) and FACSAria flow cytometry (manufactured by Nippon Becton, Dickinson and Company). […] The cultured cells were analyzed for viable cell count according to CellTiter-Glo Luminescent Cell Viability Assay (manufactured by Promega KK.). […] Note that hereinafter, an ALDEFLUOR reagent positive fraction (deemed as cancer stem cells) is represented by ALDH (+), whereas an ALDEFLUOR reagent negative fraction (not deemed as cancer stem cells) is represented by ALDH (−), in some cases.
Further, the growth suppressive effect of cancer stem cells was evaluated based on the following criteria. Note that the growth rate in Examples is a value obtained by dividing viable cell count after culture by the number of cells at the initiation time of culture.

Data set [7] relates to K562-KOr human chronic myelocytic leukemia cells, ALDH (−) fraction, transplanted to zebra young fish. As to the kind of experiment: Inhibitory action in cancer cells transplanted animal, ALDH (−) fraction. The note with it: 0.5 μm in breeding water added 24 hours after transplantation, fluorescent intensity. It is filed as in vivo. The source says:
(§2) From cell strain K562-KOr, which is a strain of human chronic myelocytic leukemia cells having fluorescent protein Kusabira-Orange constantly expressed, a fraction (ALDH (+)) containing 80% or more of cancer stem cells was extracted by use of a cancer stem cell marker, ALDEFLUOR reagent (manufactured by VERITAS Corporation) and FACSAria flow cytometry (manufactured by Nippon Becton, Dickinson and Company). The ALDH (+) fraction and a ALDH (−) fraction of general cancer cells were transplanted separately to zebra young fish (MieKomachi lineage, 2 days after fertilization) and the fish were raised in a 32° C. environment. Furthermore, 24 hours after transplantation, Compound (16) was added to breeding water so as to obtain a final concentration of […] and fish were raised for two days in a 32° C. environment.
(§3) Cells transplanted to the zebra young fish were observed under MZ16F fluorescent stereoscopic microscope (manufactured by Leica Microsystems) and a fluorescent image of the cells after 24 hours was photographed and then fluorescent intensity was quantified.
As a reference, the fluorescent intensity of cells, which were cultured in the same operation method as above in a medium containing a 0.1% DMSO solution in place of Compound (16), was used. […]

The subject of data set [8] is K562-KOr human chronic myelocytic leukemia cells, ALDH (+) fraction, transplanted to zebra young fish. As to the kind of experiment: Inhibitory action in cancer stem cells transplanted animal, ALDH (+) fraction. It is filed as in vivo.
Description: as §2, §3
As a reference, the fluorescent intensity of cells, which were cultured in the same operation method as above in a medium containing a 0.1% DMSO solution in place of Compound (16), was used.
The numerical value of fluorescent intensity was obtained from a fluorescent image taken in the same manner as in Experimental Example 74 except that Compound (16) of Experimental Example 74 was changed to Imatinib.
. The inhibition rate herein was obtained according to the expression: 100×(1−F1/F0), where the fluorescent intensity of cells when a test substance was added is represented by F1, and the fluorescent intensity of cells when a reference substance (DMSO) was added is represented by F0.

Turning to `CCN1/C(=C\C=C\C2=[N+](CC)c3ccccc3C23CCCCC3)C2(CCCCC2)c2ccccc21` [Compound 24], the “ratio of ALDH (+) cells stained” value in the data set with K562 ALDH (+) cells was 81.2%. Also, the Excitation wavelength λex in [1] amounted to 496 nm. In addition, the Fluorescence wavelength λem in [1] is 569 nm. Besides, the “ALDH(+) Superiority evaluation” value in data set [2] (K562, 0.05 μg/ml) was “B (The value of the growth rate of ALDH (+)/the growth rate of ALDH (−) is 0.8 or more and less than 0.95)”; in data set [2] (K562, 0.5 μg/ml) it was “A (The value of the growth rate of ALDH (+)/the growth rate of ALDH (−) is less than 0.8)”; in data set [2] (K562, 1 μg/ml), “A (The value of the growth rate of ALDH (+)/the growth rate of ALDH (−) is less than 0.8)”. Further, the “ALDH(+)/ALDH(−)” value in data set [2] (K562, 0.05 μg/ml) is 0.81; in [2] (K562, 0.5 μg/ml) it was 0.61; in [2] (K562, 1 μg/ml) it was 0.48. Also, the figures for the “Cancer cell growth rate (%)” value in data set [3] and in data set [4] were 10.0% and 6.5%, respectively. Also, the “Evaluation (cancer cell growth rate)” value in [3] and in data set [4] was “A (Cancer cell growth rate is less than 20%)” in each case. The “ratio of ALDH (−) cells stained” value in the data set on K562 ALDH (−) cells is given as 28.6%.
For `CN1\C(=C/C=C/C=C/C2=[N+](C)c3ccc4ccccc4c3C2(C)C)C(C)(C)c2c1ccc1ccccc21` [Compound 26], in data set [1], the Excitation wavelength λex is 684 nm and the Fluorescence wavelength λem was 710 nm. In data set [4], the “Cancer cell growth rate (%)” value is recorded as 8.6% and the “Evaluation (cancer cell growth rate)” value is listed as “A (Cancer cell growth rate is less than 20%)”. Besides, in [5], the “Inhibition rate 100×(1−F1/F0), metastatic foci” value worked out at 80 and the “Evaluation (inhibition rate, metastatic foci)” value is reported as “A (Inhibition rate is 70 or more)”.
As for `CCN1C=C/C(=C/C=C/c2oc3ccccc3[n+]2CC)c2ccccc21` [Compound 35], the “ratio of ALDH (+) cells stained” value with K562 ALDH (+) cells amounted to 82.5%. Besides, in data set [1], the Excitation wavelength λex was found to be 571 nm and the Fluorescence wavelength λem was found to be 620 nm. For the same compound, in data set [2] (K562, 0.05 μg/ml), the “ALDH(+) Superiority evaluation” value is on record as “A (The value of the growth rate of ALDH (+)/the growth rate of ALDH (−) is less than 0.8)” and the “ALDH(+)/ALDH(−)” value came out at 0.77. Further, in [2] (K562, 0.5 μg/ml), the “ALDH(+) Superiority evaluation” value is “A (The value of the growth rate of ALDH (+)/the growth rate of ALDH (−) is less than 0.8)” and the “ALDH(+)/ALDH(−)” value is reported as 0.66. Also, in data set [2] (K562, 1 μg/ml), the “ALDH(+) Superiority evaluation” value was “B (The value of the growth rate of ALDH (+)/the growth rate of ALDH (−) is 0.8 or more and less than 0.95)”; the “ALDH(+)/ALDH(−)” value is listed as 0.90. In data set [2] (K562, 10 μg/ml), the “ALDH(+) Superiority evaluation” value was “A (The value of the growth rate of ALDH (+)/the growth rate of ALDH (−) is less than 0.8)” and the “ALDH(+)/ALDH(−)” value was 0.69. Further, in data set [4], the “Cancer cell growth rate (%)” value is 29.7%; the “Evaluation (cancer cell growth rate)” value was “B (Cancer cell growth rate is 20% or more and less than 50%)”. Besides, the “ratio of ALDH (−) cells stained” value with K562 ALDH (−) cells came to 21.4%.
Take `Cc1nc(Nc2ncc(C(=O)Nc3c(C)cccc3Cl)s2)cc(N2CCN(CCO)CC2)n1` [Dasatinib]: in data set [5], the “Inhibition rate 100×(1−F1/F0), metastatic foci” value stood at 36 and the “Evaluation (inhibition rate, metastatic foci)” value was “C (Inhibition rate is less than 50)”.
Take `Cc1ccc(NC(=O)c2ccc(CN3CCN(C)CC3)cc2)cc1Nc1nccc(-c2cccnc2)n1` [Imatinib, reference compound]: the “inhibitory effect against general cancer cells” value in [6] was “an inhibitory effect against general cancer cells was observed”. The “ALDH(−) inhibition rate 100×(1−F1/F0)” value in data set [7] is given as 80.0. The “ALDH(+) Superiority evaluation” value in data set [2] (K562, 0.12 μg/ml) was “C (The value of the growth rate of ALDH (+)/the growth rate of ALDH (−) is 0.95 or more)”; in [2] (K562, 0.24 μg/ml) it was “C (The value of the growth rate of ALDH (+)/the growth rate of ALDH (−) is 0.95 or more)”; in [2] (K562, 0.35 μg/ml), “C (The value of the growth rate of ALDH (+)/the growth rate of ALDH (−) is 0.95 or more)”; in data set [2] (K562, 0.47 μg/ml), “C (The value of the growth rate of ALDH (+)/the growth rate of ALDH (−) is 0.95 or more)”; in data set [2] (K562, 0.59 μg/ml) it was “C (The value of the growth rate of ALDH (+)/the growth rate of ALDH (−) is 0.95 or more)”. For the same compound, the “ALDH(+)/ALDH(−)” value in data set [2] (K562, 0.12 μg/ml) is on record as 1.47; in data set [2] (K562, 0.24 μg/ml) it was 1.48; in data set [2] (K562, 0.35 μg/ml), 1.51; in data set [2] (K562, 0.47 μg/ml), 1.63; in data set [2] (K562, 0.59 μg/ml), 2.80. For the same compound, the “Growth suppression rate (ALDH(+) versus ALDH(−))” value in [8] (zebra young fish transplanted with K562-KOr fractions) was “ALDH(−) is high”. Moreover, the “ALDH(+) inhibition rate 100×(1−F1/F0)” value in data set [8] (zebra young fish, 0.5 μm in breeding water added 24 hours after transplantation, fluorescent intensity) turned out to be 60.0. In addition, the “Inhibition rate 100×(1−F1/F0), metastatic foci” value in data set [5] turned out to be 60. For the same compound, in [5], the “Evaluation (inhibition rate, metastatic foci)” value is “B (Inhibition rate is 50 or more and less than 70)”.
